Measurements: US10639287B2, “Compounds for the treatment of mitochondrial diseases” (UNIVERSITE PARIS-SUD, priority 2014, dated 2020)

Experiments:
[1] = tested on: Saccharomyces cerevisiae mip1^G651S yeast strain; assay: Inhibition of growth (MIC) / maximum tolerated concentration in yeast culture (DO600 after 24 h); assay type: cell-based; settings: 1-512 μM tested
Procedure: From o/n pre-culture in selective medium (SC-URA, 2% ethanol (v/v)), 50 mL of rich YPD medium (1% Yeast Extract, 0.5% Bacto Peptone, 2% Glucose) were seeded at a DO600 of 0.05/mL. The 50 mL of culture were distributed in a series of ten tubes on the basis of 2 mL of culture/tube, with 4 mL of culture being placed in the last tube. […] From this tube (tube 1), 2 mL of culture were placed into tube 2. Tube 2 contained 4 ml of culture and clofilium tosylate at a concentration of 256 μM. 2 mL of tube 2 were added to tube 3, and so on. Each tube contained the drug at a concentration equal to half that of the previous tube. Two controls were provided—without clofilium tosylate and with DMSO (the volume being the same as that used to dilute the clofilium tosylate). The cultures were incubated at 28° C. with stirring for 24 hours, and the optical density (DO600) was measured.

[2] = tested on: haploinsufficient TB2143 nematodes (polg-1(ok1458Δ/+)); assay: Test for resistance to ethidium bromide of haploinsufficient polg-1 nematodes; assay type: in vivo, Caenorhabditis elegans; settings: 50 μM, 30 μg/mL ethidium bromide, 4 days
Source text: Ethidium bromide is an intercalating agent of DNA, especially of mtDNA, rich in adenine and thymidine. At high concentrations it halts the development of the worms at stage L3 (Addo, M. G., Cossard, R., Pichard, D., Obiri-Danso, K., Rötig, A. and Delahodde, A. (2010) Caenorhabditis elegans, a pluricellular model organism to screen new genes involved in mitochondrial genome maintenance. BBA-Mol. Basis Dis., 1802, 765-773. The haploinsufficient TB2143 nematodes (polg-1(ok1458Δ/+)) are highly sensitive to low doses of ethidium bromide (30 μg/mL) with 90% of the larvae halted at stage L3.
Around thirty wild-type larvae or larvae mutated in polg-1 (TB2143 line (polg-1(ok1458Δ/+))) synchronised at stage L1 were deposited on NGM dishes containing 30 μg mL ethidium bromide and either DMSO or 50 μM clofilium tosylate (experiment performed in triplicate). Larval development was examined after 4 days of treatment.

[3] = tested on: complex I in neuronal cybrids derived from a MELAS patient (m.3243A>G tRNA^Leu mutation); assay: Ratio of complex I/citrate synthase activities in MELAS neuronal cybrids; assay type: cell-based, human; settings: 300 nM, 48 hours
Procedure: The mutant MELAS neuronal transmitochondrial line, which is the result of the fusion of the immortalised neuoroblastoma parental line SHSY-5Y with fibroblasts carrying the mutation m.3243A>G, was created in the laboratory of Prof. Procaccio.
Neuronal cybrid lines carrying the MELAS mutation and the parental control line were grown in sterile culture flasks and incubated at 37° C. with 5% CO2 in a medium composed of DMEM with 1.5 g/L glucose, 2 mM L-glutamine and supplemented with 10% foetal bovine serum as well as uridine (5 μg/ml) and pyruvate (10 μg/mL). […]
The MELAS neuronal cybrid line carrying the mutation seemingly in the homoplasmic state (i.e. reaching almost 100% MELAS mutation) and the SHSY-5Y parental control line were used for measurements of enzyme activities. […] These cell pellets were then analysed by spectrophotometry with measurement of the different mitochondrial biochemical activities, particularly the activity of citrate synthase and the activity of complex I of the respiratory chain. […]
The enzymatic activities were measured according to the protocol described in Medjda et al, 2009 (Medja F, Allouche S, Frachon P, Jardel C, Malgat M, Mousson de Camaret B, Slama A, Lunardi J, Mazat J P, Lombès A. Development and implementation of standardized respiratory chain spectrophotometric assays for clinical diagnosis. Mitochondrion. 2009 September; 9(5):331-9).

## CCCCCCC[N+](CC)(CC)CCCCc1ccc(Cl)cc1.Cc1ccc(S(=O)(=O)[O-])cc1 [clofilium tosylate]
[1]
  concentration chosen for the study in S. cerevisiae (determination of the maximum concentration tolerated): 32 µM
[2]
  resistance to ethidium bromide: increased resistance
[3]
  activity of complex I (ratio complex I/citrate synthase): increased
